Reference: patent US10494332B2, “Protein tyrosine phosphatases or SHP2 inhibitors and uses thereof” (Indiana University Research and Technology Corporation, priority 2015, dated 2019)

Biological target: T1, LMWPTP (Homo sapiens, UniProt P24666)
T1 sequence (P24666 1-158): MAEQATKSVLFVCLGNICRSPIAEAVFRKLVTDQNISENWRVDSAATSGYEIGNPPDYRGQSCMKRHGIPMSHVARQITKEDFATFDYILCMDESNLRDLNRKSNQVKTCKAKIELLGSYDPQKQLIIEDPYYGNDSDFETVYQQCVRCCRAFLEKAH
Experiment: PTP inhibition assay (pNPP)
Format: biochemical
Settings: pNPP at Km, pH 7.0, 25° C.

Point of comparison: `O=C(C(c1ccccc1)S(=O)(=O)O)N1CCC(c2ccc(Cl)c(Cl)c2)CC1` (stereo not shown) [Compound L319N47], IC50 115 µM. Against it:
- O=C(C(c1ccccc1)S(=O)(=O)O)N1CCC(Cc2ccccc2)CC1 (stereo not shown) [Compound L319N46] — higher, > 200 µM
- O=C(C(c1ccccc1)S(=O)(=O)O)N1CCCC2CCCCC21 (stereo not shown) [Compound L319N53] — higher, > 200 µM
- O=C(CS(=O)(=O)O)Nc1nc2ccc([N+](=O)[O-])cc2s1 [Compound L335N15-07] — 380-fold lower, 0.3 µM
- O=C(CS(=O)(=O)O)Nc1nc2ccccc2s1 [Compound L335N15] — 55-fold lower, 2.1 µM

Biological target: YopH (Yersinia enterocolitica, UniProt P15273)
Sequence (P15273 whole entry, looked up): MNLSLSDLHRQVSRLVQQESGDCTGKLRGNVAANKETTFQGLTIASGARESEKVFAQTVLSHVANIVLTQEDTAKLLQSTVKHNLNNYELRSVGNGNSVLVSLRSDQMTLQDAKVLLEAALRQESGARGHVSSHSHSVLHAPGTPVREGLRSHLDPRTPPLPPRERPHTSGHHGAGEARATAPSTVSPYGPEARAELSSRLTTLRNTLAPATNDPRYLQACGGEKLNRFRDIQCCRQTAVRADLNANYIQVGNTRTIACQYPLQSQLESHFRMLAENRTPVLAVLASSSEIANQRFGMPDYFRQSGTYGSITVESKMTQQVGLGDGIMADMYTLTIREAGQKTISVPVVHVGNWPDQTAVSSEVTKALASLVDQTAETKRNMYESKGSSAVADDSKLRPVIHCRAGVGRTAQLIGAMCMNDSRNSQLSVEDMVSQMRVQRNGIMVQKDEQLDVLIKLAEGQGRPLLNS
Experiment: biochemical
Settings: not given

Point of comparison: `O=C(C(c1ccccc1)S(=O)(=O)O)N1CCC(c2ccc(Cl)c(Cl)c2)CC1` (stereo not shown) [Compound L319N47], IC50 160 µM. Against it:
- O=C(C(c1ccccc1)S(=O)(=O)O)N1CCC(Cc2ccccc2)CC1 (stereo not shown) [Compound L319N46] — higher, > 200 µM
- O=C(C(c1ccccc1)S(=O)(=O)O)N1CCCC2CCCCC21 (stereo not shown) [Compound L319N53] — higher, > 200 µM
- O=C(CS(=O)(=O)O)Nc1nc2ccc([N+](=O)[O-])cc2s1 [Compound L335N15-07] — not separable, > 100 µM
- O=C(CS(=O)(=O)O)Nc1nc2ccccc2s1 [Compound L335N15] — not separable, > 100 µM

Biological target: T2, LYP (Homo sapiens, UniProt Q9Y2R2)
T2 sequence (Q9Y2R2 1-807): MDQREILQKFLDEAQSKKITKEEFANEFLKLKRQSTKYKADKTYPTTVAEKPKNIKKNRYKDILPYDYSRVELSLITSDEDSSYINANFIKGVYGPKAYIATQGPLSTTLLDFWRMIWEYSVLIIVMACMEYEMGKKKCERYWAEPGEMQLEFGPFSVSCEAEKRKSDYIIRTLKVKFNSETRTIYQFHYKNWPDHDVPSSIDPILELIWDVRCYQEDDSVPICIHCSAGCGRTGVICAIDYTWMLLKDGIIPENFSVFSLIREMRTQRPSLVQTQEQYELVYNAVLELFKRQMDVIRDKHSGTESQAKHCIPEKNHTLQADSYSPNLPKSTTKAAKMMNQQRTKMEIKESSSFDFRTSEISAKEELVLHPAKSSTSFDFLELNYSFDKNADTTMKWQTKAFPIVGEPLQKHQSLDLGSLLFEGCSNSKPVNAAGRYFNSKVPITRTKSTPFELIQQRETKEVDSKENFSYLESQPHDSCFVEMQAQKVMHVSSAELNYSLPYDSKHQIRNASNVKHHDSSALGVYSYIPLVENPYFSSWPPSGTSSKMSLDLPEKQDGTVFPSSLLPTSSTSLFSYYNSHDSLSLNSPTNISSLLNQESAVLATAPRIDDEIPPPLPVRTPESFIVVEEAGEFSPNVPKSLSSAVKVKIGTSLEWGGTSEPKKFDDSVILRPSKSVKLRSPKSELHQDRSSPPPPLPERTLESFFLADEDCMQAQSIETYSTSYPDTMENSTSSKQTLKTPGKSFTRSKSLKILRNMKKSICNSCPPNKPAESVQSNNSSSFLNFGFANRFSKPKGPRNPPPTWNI
Experiment: PTP inhibition assay (pNPP)
Format: biochemical
Settings: pNPP at Km, pH 7.0, 25° C.

Point of comparison: `O=C(C(c1ccccc1)S(=O)(=O)O)N1CCC(c2ccc(Cl)c(Cl)c2)CC1` (stereo not shown) [Compound L319N47], IC50 42 µM. Against it:
- O=C(C(c1ccccc1)S(=O)(=O)O)N1CCC(Cc2ccccc2)CC1 (stereo not shown) [Compound L319N46] — higher, > 200 µM
- O=C(C(c1ccccc1)S(=O)(=O)O)N1CCCC2CCCCC21 (stereo not shown) [Compound L319N53] — higher, > 200 µM
- O=C(CS(=O)(=O)O)Nc1nc2ccc([N+](=O)[O-])cc2s1 [Compound L335N15-07] — higher, > 100 µM
- O=C(CS(=O)(=O)O)Nc1nc2ccccc2s1 [Compound L335N15] — higher, > 100 µM

Biological target: SHP1 (Homo sapiens, UniProt P29350)
Sequence (P29350 whole entry): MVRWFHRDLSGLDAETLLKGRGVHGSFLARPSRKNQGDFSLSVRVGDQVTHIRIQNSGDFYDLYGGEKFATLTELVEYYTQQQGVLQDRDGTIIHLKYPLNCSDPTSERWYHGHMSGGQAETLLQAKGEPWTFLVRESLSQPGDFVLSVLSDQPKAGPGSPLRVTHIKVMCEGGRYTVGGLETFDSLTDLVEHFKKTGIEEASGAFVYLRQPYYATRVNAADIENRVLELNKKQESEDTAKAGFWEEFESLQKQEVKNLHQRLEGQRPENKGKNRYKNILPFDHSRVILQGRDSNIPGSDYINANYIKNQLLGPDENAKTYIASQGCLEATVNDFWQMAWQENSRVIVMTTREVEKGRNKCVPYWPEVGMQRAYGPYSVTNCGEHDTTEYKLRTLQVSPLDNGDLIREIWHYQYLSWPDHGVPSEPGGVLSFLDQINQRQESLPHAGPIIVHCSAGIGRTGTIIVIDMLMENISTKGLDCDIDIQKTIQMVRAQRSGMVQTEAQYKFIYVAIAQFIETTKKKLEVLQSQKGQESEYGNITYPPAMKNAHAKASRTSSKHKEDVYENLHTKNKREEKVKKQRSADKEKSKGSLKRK
Experiment: PTP inhibition assay (pNPP)
Format: biochemical
Settings: pNPP at Km, pH 7.0, 25° C.

Point of comparison: `O=C(C(c1ccccc1)S(=O)(=O)O)N1CCC(c2ccc(Cl)c(Cl)c2)CC1` (stereo not shown) [Compound L319N47], IC50 66 µM. Against it:
- O=C(C(c1ccccc1)S(=O)(=O)O)N1CCC(Cc2ccccc2)CC1 (stereo not shown) [Compound L319N46] — higher, > 200 µM
- O=C(C(c1ccccc1)S(=O)(=O)O)N1CCCC2CCCCC21 (stereo not shown) [Compound L319N53] — higher, > 200 µM
- O=C(CS(=O)(=O)O)Nc1nc2ccc([N+](=O)[O-])cc2s1 [Compound L335N15-07] — higher, > 100 µM
- O=C(CS(=O)(=O)O)Nc1nc2ccccc2s1 [Compound L335N15] — higher, > 100 µM

Biological target: T3, SHP2 (Homo sapiens, UniProt Q06124)
T3 sequence (Q06124 224-528): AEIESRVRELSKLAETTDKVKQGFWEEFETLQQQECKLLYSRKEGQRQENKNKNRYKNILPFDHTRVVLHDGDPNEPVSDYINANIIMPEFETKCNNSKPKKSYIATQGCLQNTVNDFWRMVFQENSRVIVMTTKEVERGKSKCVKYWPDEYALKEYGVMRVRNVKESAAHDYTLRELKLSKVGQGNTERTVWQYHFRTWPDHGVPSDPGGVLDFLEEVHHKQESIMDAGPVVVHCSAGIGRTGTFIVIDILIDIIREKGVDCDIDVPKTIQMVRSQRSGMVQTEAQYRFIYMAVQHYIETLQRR
Experiment: SHP2 phosphatase inhibition assay (pNPP)
Format: biochemical
Settings: pNPP at Km, pH 7.0, 25° C.; read-out: IC50 SHP2

Point of comparison: `O=C(C(c1ccccc1)S(=O)(=O)O)N1CCC(c2ccc(Cl)c(Cl)c2)CC1` (stereo not shown) [Compound L319N47], IC50 76 µM. Against it:
- O=C(C(c1ccccc1)S(=O)(=O)O)N1CCC(Cc2ccccc2)CC1 (stereo not shown) [Compound L319N46] — higher, > 200 µM
- O=C(C(c1ccccc1)S(=O)(=O)O)N1CCCC2CCCCC21 (stereo not shown) [Compound L319N53] — higher, > 200 µM
- O=C(CS(=O)(=O)O)Nc1nc2ccc([N+](=O)[O-])cc2s1 [Compound L335N15-07] — higher, > 100 µM
- O=C(CS(=O)(=O)O)Nc1nc2ccccc2s1 [Compound L335N15] — higher, > 100 µM

Biological target: T4, Meg2 (Homo sapiens, UniProt P43378)
T4 sequence (P43378 1-593): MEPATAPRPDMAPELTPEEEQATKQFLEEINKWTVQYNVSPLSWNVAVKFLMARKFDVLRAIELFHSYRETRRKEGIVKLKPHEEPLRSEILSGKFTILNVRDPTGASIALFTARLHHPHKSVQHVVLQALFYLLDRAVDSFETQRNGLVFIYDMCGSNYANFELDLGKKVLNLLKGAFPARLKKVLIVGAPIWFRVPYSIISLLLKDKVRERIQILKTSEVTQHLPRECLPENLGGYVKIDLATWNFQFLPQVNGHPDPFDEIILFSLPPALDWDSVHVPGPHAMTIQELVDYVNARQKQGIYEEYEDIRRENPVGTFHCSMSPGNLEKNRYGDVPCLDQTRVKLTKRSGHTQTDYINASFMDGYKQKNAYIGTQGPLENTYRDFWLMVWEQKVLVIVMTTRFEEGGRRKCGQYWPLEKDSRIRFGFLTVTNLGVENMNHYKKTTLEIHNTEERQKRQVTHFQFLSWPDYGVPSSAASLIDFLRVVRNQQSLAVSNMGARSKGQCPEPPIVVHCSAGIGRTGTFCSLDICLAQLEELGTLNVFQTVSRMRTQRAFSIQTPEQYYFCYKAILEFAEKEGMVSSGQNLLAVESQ
Experiment: PTP inhibition assay (pNPP)
Format: biochemical
Settings: not given

Point of comparison: `O=C(C(c1ccccc1)S(=O)(=O)O)N1CCC(c2ccc(Cl)c(Cl)c2)CC1` (stereo not shown) [Compound L319N47], IC50 147 µM. Against it:
- O=C(C(c1ccccc1)S(=O)(=O)O)N1CCC(Cc2ccccc2)CC1 (stereo not shown) [Compound L319N46] — higher, > 200 µM
- O=C(C(c1ccccc1)S(=O)(=O)O)N1CCCC2CCCCC21 (stereo not shown) [Compound L319N53] — higher, > 200 µM
- O=C(CS(=O)(=O)O)Nc1nc2ccc([N+](=O)[O-])cc2s1 [Compound L335N15-07] — not separable, > 100 µM
- O=C(CS(=O)(=O)O)Nc1nc2ccccc2s1 [Compound L335N15] — not separable, > 100 µM

Biological target: PTPα (Homo sapiens, UniProt P18433)
Sequence (P18433 20-802): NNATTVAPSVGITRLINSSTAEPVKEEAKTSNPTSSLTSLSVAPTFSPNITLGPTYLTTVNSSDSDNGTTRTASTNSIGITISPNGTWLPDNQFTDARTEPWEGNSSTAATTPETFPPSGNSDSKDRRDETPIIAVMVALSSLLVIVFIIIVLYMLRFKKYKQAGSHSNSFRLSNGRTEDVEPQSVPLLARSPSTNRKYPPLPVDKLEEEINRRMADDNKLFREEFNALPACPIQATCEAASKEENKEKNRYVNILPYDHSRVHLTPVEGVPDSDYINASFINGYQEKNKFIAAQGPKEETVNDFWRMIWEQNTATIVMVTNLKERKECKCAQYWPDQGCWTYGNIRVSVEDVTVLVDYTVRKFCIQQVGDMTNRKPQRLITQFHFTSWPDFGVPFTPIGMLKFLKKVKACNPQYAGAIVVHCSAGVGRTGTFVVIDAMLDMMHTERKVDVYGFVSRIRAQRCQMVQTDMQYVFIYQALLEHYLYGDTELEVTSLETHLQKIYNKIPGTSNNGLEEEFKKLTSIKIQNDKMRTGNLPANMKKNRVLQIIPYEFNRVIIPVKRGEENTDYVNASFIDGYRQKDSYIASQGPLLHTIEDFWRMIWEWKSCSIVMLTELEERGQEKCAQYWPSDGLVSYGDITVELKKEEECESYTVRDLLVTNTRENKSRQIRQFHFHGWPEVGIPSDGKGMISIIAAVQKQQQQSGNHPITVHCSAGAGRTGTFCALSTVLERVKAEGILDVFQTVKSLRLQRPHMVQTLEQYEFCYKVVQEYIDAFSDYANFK
Experiment: PTP inhibition assay (pNPP)
Format: biochemical
Settings: not given

`O=C(C(c1ccccc1)S(=O)(=O)O)N1CCC(Cc2ccccc2)CC1` (stereo not shown) [Compound L319N46] and `O=C(C(c1ccccc1)S(=O)(=O)O)N1CCC(c2ccc(Cl)c(Cl)c2)CC1` (stereo not shown) [Compound L319N47] cannot be ordered by IC50: over 200 µM for the first, over 200 µM for the second.

`O=C(C(c1ccccc1)S(=O)(=O)O)N1CCCC2CCCCC21` (stereo not shown) [Compound L319N53] and `O=C(CS(=O)(=O)O)Nc1nc2ccccc2s1` [Compound L335N15] cannot be ordered by IC50: over 200 µM for the first, over 100 µM for the second.

`O=C(CS(=O)(=O)O)Nc1nc2ccc([N+](=O)[O-])cc2s1` [Compound L335N15-07] gave an IC50 of over 100 µM.

Biological target: T5, STEP (Homo sapiens, UniProt P54829)
T5 sequence (P54829 1-565): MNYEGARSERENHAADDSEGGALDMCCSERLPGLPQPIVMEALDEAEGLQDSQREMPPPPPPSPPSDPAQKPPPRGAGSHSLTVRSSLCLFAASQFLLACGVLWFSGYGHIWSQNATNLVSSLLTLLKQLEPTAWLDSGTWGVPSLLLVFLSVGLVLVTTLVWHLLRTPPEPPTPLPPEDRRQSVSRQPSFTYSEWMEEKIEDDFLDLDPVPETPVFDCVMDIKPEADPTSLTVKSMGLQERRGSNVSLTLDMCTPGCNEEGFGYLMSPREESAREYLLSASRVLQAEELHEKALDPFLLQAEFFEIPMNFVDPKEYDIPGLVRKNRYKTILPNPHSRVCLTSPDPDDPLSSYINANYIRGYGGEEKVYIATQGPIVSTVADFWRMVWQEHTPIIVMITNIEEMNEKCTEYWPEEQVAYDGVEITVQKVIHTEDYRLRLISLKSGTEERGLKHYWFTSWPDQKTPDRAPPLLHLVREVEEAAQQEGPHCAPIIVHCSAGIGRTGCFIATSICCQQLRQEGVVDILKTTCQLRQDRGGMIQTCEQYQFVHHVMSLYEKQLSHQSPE
Experiment: PTP inhibition assay (pNPP)
Format: biochemical
Settings: pNPP at Km, pH 7.0, 25° C.; read-out: IC50 STEP

`O=C(C(c1ccccc1)S(=O)(=O)O)N1CCC(Cc2ccccc2)CC1` (stereo not shown) [Compound L319N46] and `O=C(C(c1ccccc1)S(=O)(=O)O)N1CCC(c2ccc(Cl)c(Cl)c2)CC1` (stereo not shown) [Compound L319N47] cannot be ordered by IC50: over 200 µM for the first, over 200 µM for the second.

`O=C(C(c1ccccc1)S(=O)(=O)O)N1CCCC2CCCCC21` (stereo not shown) [Compound L319N53] and `O=C(CS(=O)(=O)O)Nc1nc2ccccc2s1` [Compound L335N15] cannot be ordered by IC50: over 200 µM for the first, over 100 µM for the second.

Molecule `O=C(CS(=O)(=O)O)Nc1nc2ccc([N+](=O)[O-])cc2s1` [Compound L335N15-07] has an IC50 of over 100 µM.
